Measurements as given in patent US12433908B2, “Use of nicotinamide riboside, nicotinic acid riboside, and nicotinamide mononucleotide, reduced nicotinyl compounds, and nicotinoyl compound derivatives in infant formula for healthy development” (ChromaDex, Inc., priority 2016, dated 2025).

Legend:
[1] = Blood chemistry analysis of piglets given NR solution; assay type: in vivo, piglets (Yorkshire/Hampshire crossbred)
Source text: Sixteen (n=16) Yorkshire/Hampshire crossbred piglets were obtained from the University of California, Davis Swine Teaching and Research Center and received on lactation day (“LD”) 14. Prior to arrive, the piglets were processed by the suppler between 1-3 days of age by administration of iron and an antibiotic ([…] for swine) as is common practice at the University of California, Davis Swine Facility. It is not common practice at the University of California, Davis Swine Facility to give a second dose of iron and antibiotics unless it becomes necessary. The piglets were from two litters (litters 15 and 17), weaned at 17 days of age, and randomly placed into one of two groups balanced for litter, sex, and weight. The animals were not acclimated to the facility at arrival and were subsequently acclimated to the test diet administration system. The piglets were weaned into a temperature-controlled room (approximately 27-29° C.) that contained 10 adjacent pens. The piglets were group-housed in the nursery room at the Swine Facility, which is an enclosed room with access restricted to trained personnel. The two groups were separated by one pen containing piglets of similar age. Each morning enough nicotinamide riboside (NR, I) in water solution was prepared for that day's dose administration according to the dose preparation protocol. At least 5 mL of prepared dose was reserved and immediately frozen after preparation each day for analysis of nicotinamide riboside (NR, I) for the purpose of confirming stability of the dose material. The doses were stored at refrigeration temperature while not in use. Nicotinamide riboside (NR, I) was dosed once per day in the morning and at the same time each day. Piglets in the control group received the same volume of plain water and were dosed on the same schedule. Starting on Day 1, animals in the nicotinamide riboside (NR, I) group were dosed once daily (in the morning) with 277 mg nicotinamide riboside (NR, I) per pig resuspended in water for seven days. After one week, animals were dosed once daily with 342 mg nicotinamide riboside (NR, I) per pig delivered in 2.5 mL for seven days. For Days 1 and 2, the nicotinamide riboside (NR, I) solution was prepared by resuspending 2770 mg nicotinamide riboside (NR, I) in 50 mL water, and 5 mL of this solution was delivered to each pig by squirting it into the back of the mouth using a 10 mL syringe with a piece of tubing attached to the end. To reduce the volume to more efficiently deliver the nicotinamide riboside (NR, I) solution, the 2770 mg was resuspended in 25 mL water and 2.5 mL of the solution was squirted into the back of the mouth of each pig using a 3 mL syringe for Days 3-7. For Days 8-14, 3420 mg nicotinamide riboside (NR, I) was resuspended in 25 mL water and 2.5 mL of this solution was delivered to each pig. Each day prior to dosing, 2.5 mL of the nicotinamide riboside (NR, I) (5 mL on Days 1 and 2) were placed into a separate tube and frozen. Blood was collected from each pig via jugular venipuncture on Days 1, 8, and 14. In each instance, blood was collected prior to dosing with nicotinamide riboside (NR, I). On Day 1, the sow was removed from the piglets for approximately three hours prior to sample collection. On Days 8 and 14, feed was removed from the animals' pens 12 hours prior to sample collection. Blood was collected into purple-top vacutainers for CBC analysis and into red-top vacutainers for blood chemistry analysis. CBC analysis was performed at IDEXX Laboratories in West Sacramento, California using the Sysmex XT-iV Vet Hematology Autoanalyzer (Sysmex America Inc., Lincolnshire, Illinois). Red-top tubes were spun to collect serum and the serum frozen. Frozen aliquots (500 μL) were submitted to the University of California, Davis Veterinary medicine Teaching Hospital Clinical Diagnostic Laboratory for Blood Chemistry Analysis using the Cobas 6000 C501 Clinical Chemistry Analyzer (Roche Diagnostics, Indianapolis, IN). […]

[2] = mice on a high-fat diet supplemented with NR; cited from earlier work
[3] = Wk 1, 277 mg/pig once daily oral
[4] = Wk 2, 342 mg/pig once daily oral Days 8-14

NC(=O)c1ccc[n+]([C@@H]2O[C@H](CO)[C@@H](O)[C@H]2O)c1 [NR, Nicotinamide riboside]
AST ([1]; Baseline, before dosing): 45.5 U/L
Albumin ([1]; Baseline, before dosing): 3.74 g/dL
Alkaline Phosphatase ([1]; Baseline, before dosing): 720 U/L
Anion Gap ([1]; Baseline, before dosing): 26.7 mmol/L
BUN ([1]; Baseline, before dosing): 5.8 mg/dL
Bicarbonate ([1]; Baseline, before dosing): 19.4 mmol/L
Bilirubin Total ([1]; Baseline, before dosing): 0.40 mg/dL
Calcium ([1]; Baseline, before dosing): 10.6 mg/dL
Chloride ([1]; Baseline, before dosing): 100.3 mmol/L
Creatine Kinase ([1]; Baseline, before dosing): 1.30 ×10^3 U/L
Creatinine ([1]; Baseline, before dosing): 0.94 mg/dL
GGT ([1]; Baseline, before dosing): 43.8 U/L
Globulin ([1]; Baseline, before dosing): 0.86 g/dL
Glucose ([1]; Baseline, before dosing): 117.8 mg/dL
Phosphorus ([1]; Baseline, before dosing): 9.9 mg/dL
Potassium ([1]; Baseline, before dosing): 4.50 mmol/L
Sodium ([1]; Baseline, before dosing): 141.9 mmol/L
Total Protein ([1]; Baseline, before dosing): 4.59 g/dL
AST [1, 3]: 50.6 U/L
Albumin [1, 3]: 3.43 g/dL
Alkaline Phosphatase [1, 3]: 326 U/L
Anion Gap [1, 3]: 21.1 mmol/L
BUN [1, 3]: 10.9 mg/dL
Bicarbonate [1, 3]: 20.1 mmol/L
Bilirubin Total [1, 3]: 0.40 mg/dL
Calcium [1, 3]: 9.0 mg/dL
Chloride [1, 3]: 96.1 mmol/L
Creatine Kinase [1, 3]: 0.88 ×10^3 U/L
Creatinine [1, 3]: 1.07 mg/dL
GGT [1, 3]: 41.4 U/L
Globulin [1, 3]: 0.97 g/dL
Glucose [1, 3]: 99.7 mg/dL
Phosphorus [1, 3]: 6.5 mg/dL
Potassium [1, 3]: 4.27 mmol/L
Sodium [1, 3]: 133.1 mmol/L
Total Protein [1, 3]: 4.40 g/dL
AST [1, 4]: 36.7 U/L
Albumin [1, 4]: 3.29 g/dL
Alkaline Phosphatase [1, 4]: 285 U/L
Anion Gap [1, 4]: 20.4 mmol/L
BUN [1, 4]: 8.6 mg/dL
Bicarbonate [1, 4]: 23.7 mmol/L
Bilirubin Total [1, 4]: 0.27 mg/dL
Calcium [1, 4]: 9.8 mg/dL
Chloride [1, 4]: 97.1 mmol/L
Creatine Kinase [1, 4]: 0.55 ×10^3 U/L
Creatinine [1, 4]: 0.80 mg/dL
GGT [1, 4]: 42.6 U/L
Globulin [1, 4]: 1.20 g/dL
Glucose [1, 4]: 77.1 mg/dL
Phosphorus [1, 4]: 7.5 mg/dL
Potassium [1, 4]: 4.10 mmol/L
Sodium [1, 4]: 137.3 mmol/L
Total Protein [1, 4]: 4.49 g/dL
less weight gained on a high-fat diet [2]: 40%
